Patent US5244898A, “Benzoheterocyclic compounds” (Otsuka Pharmaceutical Co., Ltd., priority 1991, dated 1993)

Key:
V1 Receptor = V1 Receptor (Rattus norvegicus, UniProt P30560); experiment: V1 Receptor Binding Assay ([3H]-Arg-vasopressin, rat liver plasma membrane); details: 37° C., 10 minutes, pH 8.0
Method: After incubation, the mixture is filtered three times using the glass filter (GF/F) so as to separate the membrane preparation combining with vasopressin and then washed with the buffer (5 ml). This glass filter is taken out and mixed with liquid scintillation cocktail. The amount of [^3 H]-vasopressin combining with the membrane is measured by liquid scintillation counter and the rate of the inhibitory effect of the test compound is estimated according to the following equation.
(§1) C1 : The amount of [^3 H]-vasopressin combining with the membrane in the presence of the test compound of a known amount.
(§2) C0 : The amount of [^3 H]-vasopressin combining with the membrane in the absence of the test compound.
B1 : The amount of [^3 H]-vasopressin combining with the membrane in the presence of the excess amount of vasopressin (10^-6 M).
(§3) The results are expressed as IC50 value, which is the concentration of the test compound required to achieve the inhibitory effect in the rate of 50%.

V2 Receptor = molecular target: T1, V2 Receptor (Rattus norvegicus, UniProt Q00788); experiment: V2 Receptor Binding Assay ([3H]-Arg-vasopressin, rat kidney plasma membrane); details: 4° C., pH 8.0
T1 construct: rat kidney plasma membrane preparations; from tissue; host or cells: rat kidney plasma membranes
T1 sequence (Q00788 whole entry): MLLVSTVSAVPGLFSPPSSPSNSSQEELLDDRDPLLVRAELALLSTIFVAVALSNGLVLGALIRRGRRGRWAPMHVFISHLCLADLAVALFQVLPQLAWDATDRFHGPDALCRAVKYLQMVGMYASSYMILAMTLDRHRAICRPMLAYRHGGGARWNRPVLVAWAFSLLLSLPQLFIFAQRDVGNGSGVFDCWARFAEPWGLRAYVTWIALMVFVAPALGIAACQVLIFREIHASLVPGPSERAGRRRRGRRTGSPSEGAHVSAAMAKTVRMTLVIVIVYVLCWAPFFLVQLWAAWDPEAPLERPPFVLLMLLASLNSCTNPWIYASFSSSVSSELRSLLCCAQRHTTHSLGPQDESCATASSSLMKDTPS
Method: Chem., 253, 3211 (1978)], the plasma membrane (100000 dpm, 4×10^-10M) of [^3 H]-Arg-vasopressin and a test compound (0.6 mg, 10^-10 -10^-5 M) are incubated at 4° C. for 3 hours in 100 mM Tris-HCl buffer pH: 8.0 (250 μl ) containing 5 mM MgCl2, 1 mM EDTA and 0.1 % BSA. After incubation, the mixture is filtered using the glass filter (GF/F) so as to separate the membrane preparation combining with vasopressin and then washed twice with the buffer (5 ml). This glass filter is taken out and mixed with liquid scintillation cocktail. The amount of [^3 H]-vasopressin combining with the membrane is measured by liquid scintillation counter and the rate of the inhibitory effect of the test compound is estimated according to the following equation. [formula]
as §1, §2
B1 : The amount of [3H-vasopressin combining with the membrane in the presence of the excess amount of vasopressin (10^-6 M).
as §3

V1 Receptor, sequence (P30560 whole entry): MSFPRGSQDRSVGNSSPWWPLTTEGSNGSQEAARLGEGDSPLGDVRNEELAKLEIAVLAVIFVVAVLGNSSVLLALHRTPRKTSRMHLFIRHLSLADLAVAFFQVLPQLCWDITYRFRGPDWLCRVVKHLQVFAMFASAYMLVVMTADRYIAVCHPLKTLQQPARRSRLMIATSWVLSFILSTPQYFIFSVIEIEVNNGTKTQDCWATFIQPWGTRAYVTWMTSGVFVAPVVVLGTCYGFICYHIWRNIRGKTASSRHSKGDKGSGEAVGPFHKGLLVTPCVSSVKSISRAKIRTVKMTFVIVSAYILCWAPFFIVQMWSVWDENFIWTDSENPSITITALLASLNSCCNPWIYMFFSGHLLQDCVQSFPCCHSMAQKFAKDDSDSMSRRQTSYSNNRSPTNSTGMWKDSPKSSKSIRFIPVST

`COc1cc(NC(=O)c2ccccc2C)ccc1C(=O)N1CCCC(CC(=O)N2CCCCC2)c2cc(F)ccc21` (stereo not drawn) [Test Compound 58, 5-[(1-piperidinyl)carbonylmethyl]-7-fluoro-1-[2-methoxy-4-(2-methylbenzoylamino)benzoyl]-2,3,4,5-tetrahydro-1H-benzazepine] showed an IC50 (V1 Receptor) of 0.095 µM and an IC50 (V2 Receptor) of 0.016 µM.
In the case of `COc1cc(NC(=O)c2ccccc2Br)ccc1C(=O)N1CCCC(CC(=O)N2CCC(NC(C)=O)CC2)c2cc(F)ccc21` (stereo not drawn) [Test Compound 60, 5-[(4-Acetylamino-1-piperidinyl)carbonylmethyl]-7-fluoro-1-[2-methoxy-4-(2-bromobenzoylamino)benzoyl]-2,3,4,5-tetrahydro-1H-benzazepine], the IC50 (V1 Receptor) is reported as 0.045 µM and the IC50 (V2 Receptor) is reported as 0.01 µM.
`COc1cc(NC(=O)c2ccccc2C)ccc1C(=O)N1CCCC(CC(=O)N2CCN(C)CC2)c2cc(Cl)ccc21` (stereo not drawn) [Test Compound 63, 5-[(4-Methyl-1-piperazinyl)carbonylmethyl]-7-chloro-1-[2-methoxy-4-(2-methylbenozylamino)benzoyl]-2,3,4,5-tetrahydro-1H-benzazepine] showed an IC50 (V1 Receptor) of 0.03 µM and an IC50 (V2 Receptor) of 0.01 µM.
